Measurements taken from patent US11981677B2, “Further substituted triazolo quinoxaline derivatives” (Grünenthal GmbH, priority 2018, dated 2024).

Each compound was assayed against T1, Glucocorticoid Receptor (Homo sapiens, UniProt P04150) (assay: Agonistic mode of action on the glucocorticoid receptor (CHO-Gal4/GR luciferase reporter cell line)). Conditions: CHO-Gal4/GR luciferase reporter cells; observed in the agonistic assay or the antagonistic assay (mode not given); read-out: IC50 or EC50 range.
T1 construct: expressed in transfected cells
T1 sequence (P04150 524-758 limits assumed): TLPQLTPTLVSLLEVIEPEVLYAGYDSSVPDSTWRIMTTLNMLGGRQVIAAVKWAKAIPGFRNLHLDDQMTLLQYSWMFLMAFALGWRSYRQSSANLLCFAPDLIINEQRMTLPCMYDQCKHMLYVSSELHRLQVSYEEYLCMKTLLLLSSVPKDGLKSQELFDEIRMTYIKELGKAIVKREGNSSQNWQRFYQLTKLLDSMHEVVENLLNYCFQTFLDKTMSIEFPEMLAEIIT
Type: cell-based
How it was run: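 CHO cells stably expressing GAL4 DBD–GR ligand-binding domain fusion with GAL4-UAS firefly luciferase reporter, seeded 24 h, then treated in Opti-MEM with 8 half-log concentrations from 10 μM to 0.003 μM (0.5% DMSO), quadruplicate. Luminescence read on FLIPR after lysis with Triton/luciferin; EC50 calculated.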

Row | Structure (SMILES) | IC50 or EC50 (antagonist or agonist mode, not stated per compound) [nM]
1 | CCc1c(-c2cc(F)cc3c2cnn3S(C)(=O)=O)cc(F)c2c1-n1c(C)nnc1C(C)(C)N2 [Example 53, 9-Ethyl-6-fluoro-8-(6-fluoro-1-methylsulfonyl-1H-indazol-4-yl)-1,4,4-trimethyl-5H-[1,2,4]triazolo[4,3-a]quinoxaline] | 100 to 1000
2 | CCc1nnc2n1-c1c(C)c(-c3cc(F)cc4c(C)c[nH]c34)cc(F)c1NC2(C)C [Example 316, 1-Ethyl-6-fluoro-8-(5-fluoro-3-methyl-1H-indol-7-yl)-4,4,9-trimethyl-5H-[1,2,4]triazolo[4,3-a]quinoxaline] | 100 to 1000
3 | COc1c(-c2cc(F)cc3c2ccn3CCO)cc(F)c2c1-n1c(C3CC3)nnc1C(C)(C)N2 [Example 61, 2-[4-(1-Cyclopropyl-6-fluoro-9-methoxy-4,4-dimethyl-5H-[1,2,4]triazolo[4,3-a]quinoxalin-8-yl)-6-fluoro-1H-indol-1-yl]-EtOH] | 1000 to 15000
4 | Cc1nnc2n1-c1c(c(F)cc(-c3cccc4c3ccn4S(C)(=O)=O)c1C1CC1)NC2(C)C [Example 474, 9-Cyclopropyl-6-fluoro-1,4,4-trimethyl-8-(1-methylsulfonyl-1H-indol-4-yl)-5H-[1,2,4]triazolo[4,3-a]quinoxaline] | 100 to 1000
5 | Cc1c(-c2cc(F)cc3c2ccn3S(C)(=O)=O)cc(F)c2c1-n1c(C3CC3)nnc1C(C)(C)N2 [Example 63, 1-Cyclopropyl-6-fluoro-8-(6-fluoro-1-methylsulfonyl-1H-indol-4-yl)-4,4,9-trimethyl-5H-[1,2,4]triazolo[4,3-a]quinoxaline] | 100 to 1000
6 | CCc1c(-c2cc(F)cc3c2ccn3CCO)cc(F)c2c1-n1c(C)nnc1C(C)(C)N2 [Example 464, 2-[4-(9-Ethyl-6-fluoro-1,4,4-trimethyl-5H-[1,2,4]triazolo[4,3-a]quinoxalin-8-yl)-6-fluoro-1H-indol-1-yl]-EtOH] | 100 to 1000
7 | Cc1c[nH]c2c(-c3cc(F)c4c(c3C3CC3)-n3c(C)nnc3C(C)(C)N4)cccc12 [Example 472, 9-Cyclopropyl-6-fluoro-1,4,4-trimethyl-8-(3-methyl-1H-indol-7-yl)-5H-[1,2,4]triazolo[4,3-a]quinoxaline] | 100 to 1000
8 | CCc1c(-c2cccc3c2ccn3S(C)(=O)=O)cc(F)c2c1-n1c(C)nnc1C(C)(C)N2 [Example 49, 9-ethyl-6-fluoro-1,4,4-trimethyl-8-(1-(methylsulfonyl)-1H-indol-4-yl)-4,5-dihydro-[1,2,4]triazolo[4,3-a]quinoxaline] | 100 to 1000
9 | CCc1c(-c2cc(F)cc3c2ccn3S(C)(=O)=O)cc(F)c2c1-n1c(C)nnc1C(C)(C)N2 [Example 48, 9-Ethyl-6-fluoro-8-(6-fluoro-1-methylsulfonyl-1H-indol-4-yl)-1,4,4-trimethyl-5H-[1,2,4]triazolo[4,3-a]quinoxaline] | < 100
10 | Cc1c(-c2cc(F)cc3c2cnn3S(C)(=O)=O)c(F)c(F)c2c1-n1c(C)nnc1C(C)(C)N2 [Example 452, 6,7-Difluoro-8-(6-fluoro-1-methylsulfonyl-1H-indazol-4-yl)-1,4,4,9-tetramethyl-5H-[1,2,4]triazolo[4,3-a]quinoxaline] | < 100

The next lines start with the values.

Row | IC50 or EC50 (antagonist or agonist mode, not stated per compound) [nM] | Structure (SMILES)
11 | < 100 | Cc1c(-c2cccc3c2ccn3S(=O)(=O)CC2CC2)cc(F)c2c1-n1c(C)nnc1C(C)(C)N2 [Example 491, 8-[1-(Cyclopropyl-methylsulfonyl)-1H-indol-4-yl]-6-fluoro-1,4,4,9-tetramethyl-5H-[1,2,4]triazolo[4,3-a]quinoxaline]
12 | < 100 | Cc1c(-c2cc(F)cc3c(C)c[nH]c23)c(Cl)c(F)c2c1-n1c(C)nnc1C(C)(C)N2 [Example 526, 7-Chloro-6-fluoro-8-(5-fluoro-3-methyl-1H-indol-7-yl)-1,4,4,9-tetramethyl-5H-[1,2,4]triazolo[4,3-a]quinoxaline]
13 | 100 to 1000 | COc1c(-c2cc(F)cc3c2cnn3S(C)(=O)=O)c(F)c(F)c2c1-n1c(C)nnc1C(C)(C)N2 [Example 501, 6,7-Difluoro-8-(6-fluoro-1-methylsulfonyl-1H-indazol-4-yl)-9-methoxy-1,4,4-trimethyl-5H-[1,2,4]triazolo[4,3-a]quinoxaline]
14 | 100 to 1000 | CCS(=O)(=O)n1ccc2c(-c3cc(F)c4c(c3NC)-n3c(C)nnc3C(C)(C)N4)cc(F)cc21 [Example 479, [8-[1-(Ethylsulfonyl)-6-fluoro-1H-indol-4-yl]-6-fluoro-1,4,4-trimethyl-5H-[1,2,4]triazolo[4,3-a]quinoxalin-9-yl]-methyl-amine]
15 | 100 to 1000 | Cc1c(-c2cc(F)cc3c(C)c[nH]c23)c(F)c(Cl)c2c1-n1c(C)nnc1C(C)(C)N2 [Example 508, 6-Chloro-7-fluoro-8-(5-fluoro-3-methyl-1H-indol-7-yl)-1,4,4,9-tetramethyl-5H-[1,2,4]triazolo[4,3-a]quinoxaline]
16 | < 100 | Cc1c(-c2cc(F)cc3c2cnn3S(C)(=O)=O)c(F)c(Cl)c2c1-n1c(C)nnc1C(C)(C)N2 [Example 510, 6-Chloro-7-fluoro-8-(6-fluoro-1-methylsulfonyl-1H-indazol-4-yl)-1,4,4,9-tetramethyl-5H-[1,2,4]triazolo[4,3-a]quinoxaline]
17 | 100 to 1000 | COc1cc(-c2cc(F)c3c(c2OC)-n2c(C)nnc2C(C)(C)N3)c2ccn(S(C)(=O)=O)c2c1 [Example 524, 6-Fluoro-9-methoxy-8-(6-methoxy-1-methylsulfonyl-1H-indol-4-yl)-1,4,4-trimethyl-5H-[1,2,4]triazolo[4,3-a]quinoxaline]
18 | < 100 | Cc1c(-c2cc(F)cc3c(C)c[nH]c23)c(F)c(F)c2c1-n1c(C)nnc1C(C)(C)N2 [Example 514, 6,7-Difluoro-8-(5-fluoro-3-methyl-1H-indol-7-yl)-1,4,4,9-tetramethyl-5H-[1,2,4]triazolo[4,3-a]quinoxaline]
19 | < 100 | CNc1c(-c2cc(F)cc3c(C)c[nH]c23)cc(F)c2c1-n1c(C)nnc1C(C)(C)N2 [Example 487, [6-Fluoro-8-(5-fluoro-3-methyl-1H-indol-7-yl)-1,4,4-trimethyl-5H-[1,2,4]triazolo[4,3-a]quinoxalin-9-yl]-methyl-amine]
20 | 1000 to 15000 | Cc1c(-c2cc(F)cc3c2ccn3S(C)(=O)=O)c(F)c(Cl)c2c1-n1c(C)nnc1C(C)(C)N2 [Example 503, 6-Chloro-7-fluoro-8-(6-fluoro-1-methylsulfonyl-1H-indol-4-yl)-1,4,4,9-tetramethyl-5H-[1,2,4]triazolo[4,3-a]quinoxaline]
21 | 100 to 1000 | COc1c(-c2cccc3c2ccn3S(C)(=O)=O)c(F)c(F)c2c1-n1c(C)nnc1C(C)(C)N2 [Example 499, 6,7-Difluoro-9-methoxy-1,4,4-trimethyl-8-(1-methylsulfonyl-1H-indol-4-yl)-5H-[1,2,4]triazolo[4,3-a]quinoxaline]
